# Laboratory results published in patent publication US20230407243A1, “GENETIC PLATFORM TO INVESTIGATE THE FUNCTIONS OF BACTERIAL DRUG EFFLUX PUMPS” (priority 2022, published 2023).
# Where “and” joins values, the source holds several entries; their conditions need not be identical. Equal entries are not always repeated. Where two headings read alike, the source gives them in different places.
# Legend:
# Assay type in all cases: cell-based, Escherichia coli
# [1] = test system: ΔtolC-Pore; assay: microbe, parasite or virus in culture; settings: for Minimum inhibitory concentration (MIC), Pore ΔtolC: Table 10, with pore; for Minimum inhibitory concentration (MIC), Pore ΔtolC / Minimum inhibitory concentration, ΔtolC-Pore: technical duplicate; for Minimum inhibitory concentration, ΔtolC-Pore: Table 14A, porinated
# Protocol: (§1) For genomic integration of the pore, the fhuA ΔC/Δ4L gene and the adjacent gentamicin resistance cassette were amplified using a high-fidelity polymerase and the fhuA_40_Up/gImS_3680_Low primers (Table 4). Integration of the pore gene was performed as described above. The pore gene was introduced into the intergenic region between the glmS and pstS genes, with gene expression under the control of a constitutive promoter (Kearse, M. et al., 2012). Genomic integrations were verified using PCR (Primers: pstS_520_Up/glmS_3680_Low, Table 4). Successful integrations were transformed with pCP20 to remove the gentamicin resistance cassette as previously described. Activity of the pore was confirmed through susceptibility testing with the large antibiotic vancomycin prior to phenotypic profiling and further susceptibility testing.
# (§2) Single colonies were used to inoculate 3 mL of LB followed by incubation at 37° C. for 18 h with aeration at 220 rpm. The bacterial cells were harvested by centrifugation and resuspended in phosphate buffered saline (PBS) ([pH 7.4], 137 mM NaCl (Bioshop), 2.7 mM KCl (Bioshop), 10 mM Na2PO4 (Bioshop) and 1.8 mM K2PO4) to an OD600 nm˜1.0, followed by 1/2000 dilution into MHB II.
# (§3) To a 384-well microtiter plate (Corning, untreated polystyrene), 500 nL of compound was dispensed, in duplicate, and serially titrated 2-fold using an Echo 550 acoustic liquid dispenser (Labcyte Inc.). […] As a solvent control, 500 nL of DMSO was applied to wells that contained no compound. Using a multichannel pipette, 50 μL of the prepared bacterial inoculum was applied to each well. To enable background correction post-incubation, the OD600 nm was measured (Biotek Synergy Neo2 microplate reader) prior to incubation. The plates were incubated at 37° C. with aeration at 900 rpm for 18 h. The plates were equilibrated to room temperature and the OD600 nm measured using a BioTek Synergy Neo2 microplate reader. Data was analyzed in both Prism (GraphPad, Version 9.2.0) and Microsoft Excel (Version 16.53). Raw data were input into Microsoft Excel and the pre-incubation OD600 nm measurements were subtracted from the post-incubation OD600 nm measurements. These corrected measurements were input into Prism 9 as a grouped analysis. […] All other MIC values were adjusted accordingly and visualized using the single-color scale grouped heat map function. Identification of compound chemical properties was achieved using DataWarrior (Version 5.5.0). Using PubChem, the SMILES chemical notation for each compound was obtained and compiled in Microsoft Excel. The resulting spreadsheet was input into DataWarrior and properties were calculated from the compound chemical structures.
# [2] = test system: wild-type (WT) K-12-Pore; assay: microbe, parasite or virus in culture; settings: technical duplicate; for MIC: Escherichia coli
# Protocol: as §1, §2, §3
# [3] = test system: EKO-35-Pore; assay: MIC susceptibility profiling, porinated strain; settings: for Fold changes of MICs: EKO-35-Pore compared to EKO-35-Pore (reference); for Minimum inhibitory concentration (MIC), Pore EKO-35 / Minimum inhibitory concentration, EKO-35-Pore / MIC: technical duplicate; for MIC: Escherichia coli
# Protocol: as §1, §2, §3
# [4] = test system: EKO-35 araC::mdtEF; assay: MIC susceptibility profiling, efflux platform; settings: for Fold change of MICs: EKO-35 araC::mdtEF compared to EKO-35
# In short: (§4)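 Overnight LB cultures (37 °C, 18 h) were resuspended in PBS pH 7.4 to OD600 ~1.0 and diluted 1/2000 into MHB II. Strains were exposed to 2-fold serial compound dilutions in duplicate for 18 h at 37 °C with shaking. MIC was read from OD600 after subtracting pre-incubation background.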
# [5] = test system: EKO-35 araC::acrB; assay: MIC susceptibility profiling, efflux platform; settings: for Fold change of MICs: EKO-35 araC::acrB compared to EKO-35
# In short: as §4
# [6] = test system: wild-type E. coli K-12 str. BW25113; assay: microbe, parasite or virus in culture; settings: technical duplicate; for MIC: Escherichia coli, BW25113
# Protocol: as §2, §3
# [7] = test system: E. coli EKO-35; assay: microbe, parasite or virus in culture; settings: for Fold change of MICs: EKO-35 compared to EKO-35 (reference); for Minimum inhibitory concentration (MIC), EKO-35 / Minimum Inhibitory Concentration, EKO-35 / MIC: technical duplicate; for MIC: Escherichia coli, EKO35
# Protocol: as §2, §3
# [8] = test system: E. coli ΔtolC; assay: microbe, parasite or virus in culture; settings: for Minimum inhibitory concentration (MIC), ΔtolC: Table 10, without pore; for Minimum inhibitory concentration (MIC), ΔtolC / Minimum Inhibitory Concentration, ΔtolC: technical duplicate; for Minimum Inhibitory Concentration, ΔtolC: Table 13A, non-porinated
# Protocol: as §2, §3
# [9] = test system: EKO-35 strains producing different efflux pumps (EKO-35 araC::X); assay: Checkerboard synergy (FICI) of PAβN or NMP with antibiotics; settings: for PABN MICa Alone: PAβN alone, one value per checkerboard
# Protocol: Synergy measurement using checkerboard analysis was performed in 96-well microtiter plates using the microdilution broth method, according to CLSI guidelines (Patel J. B., 2015). The cell inocula were prepared using the colony resuspension method. The minimum inhibitory concentrations (MICs) were defined as the lowest concentration that provided no growth, as determined by measurement of the OD600nm using a Synergy H1 microplate reader (BioTek). Susceptibility testing was performed in MHB II with a final volume of 100 μL. PAI3N (Bachem Americas) was solubilized in MHB II. […] Solvent controls were included in each plate.
# The Fractional Inhibitory Concentration Index (FICI) was used to assess the synergy of PAI3N in combination with different antibiotics. The FICI represents the ΣFIC of each drug. The FICI for each drug was calculated using the following formula: FICI=FICA+FICB=(CA/MICA)+(CB/MICB). Where MICA and MICB are the MICs of drugs A (PAI3N/NMP) and B (antibiotic) alone, and CA and CB are the MICs of the drugs in combination. The effects of PAβN or NMP in combination with antibiotics were classified as: synergistic (FICI<0.5), additive (FICI>0.5-1.0), indifferent (FICI>1.0-2.0), and antagonistic (FICI>2.0). Fold increases in resistance provided by efflux pumps were calculated by dividing the MIC values of strains expressing efflux pumps by the MIC value of EKO-35.
# [10] = Table 13A, non-porinated, technical duplicate
compound,measurement,setting,value
N#CC(C#N)=NNc1cccc(Cl)c1 [CCCP],"Minimum inhibitory concentration (MIC), Pore ΔtolC",[1],0.391 µg/mL
same,"Minimum inhibitory concentration, ΔtolC-Pore",[1],0.391 µg/mL
same,"Minimum inhibitory concentration (MIC), Pore K-12","[2]; Table 10, with pore",12.5 µg/mL
same,"Minimum inhibitory concentration, K-12 (WT)-Pore","[2]; Table 14A, porinated",12.5 µg/mL
same,Fold changes of MICs,[3],1 fold
same,"Minimum inhibitory concentration (MIC), Pore EKO-35","[3]; Table 10, with pore",6.25 µg/mL
same,"Minimum inhibitory concentration, EKO-35-Pore","[3]; Table 14A, porinated",6.25 µg/mL
same,Fold change of MICs,[4],1 fold
same,"Minimum Inhibitory Concentration, EKO-35 araC::mdtEF",[4]; [10],12.5 µg/mL
same,Fold change of MICs,[5],1 fold
same,"Minimum Inhibitory Concentration, EKO-35 araC::acrB",[5]; [10],12.5 µg/mL
same,"Minimum inhibitory concentration (MIC), K-12","[6]; Table 10, without pore",25 µg/mL
same,"Minimum Inhibitory Concentration, K-12","[6]; Table 13A, non-porinated",25 µg/mL
same,Fold change of MICs,[7],1 fold
same,"Minimum inhibitory concentration (MIC), EKO-35","[7]; Table 10, without pore",12.5 µg/mL
same,"Minimum Inhibitory Concentration, EKO-35","[7]; Table 13A, non-porinated",12.5 µg/mL
same,"Minimum inhibitory concentration (MIC), ΔtolC",[8],0.781 µg/mL
same,"Minimum Inhibitory Concentration, ΔtolC",[8],0.781 µg/mL
O=C(Nc1ccc(C(F)(F)F)cc1)Nc1ccc(C(F)(F)F)cc1 [compound 7],"Minimum inhibitory concentration (MIC), Pore ΔtolC",[1],0.313 µg/mL
same,"Minimum inhibitory concentration, ΔtolC-Pore",[1],0.313 µg/mL
same,"Minimum inhibitory concentration (MIC), Pore K-12","[2]; Table 10, with pore",320 µg/mL
same,"Minimum inhibitory concentration, K-12 (WT)-Pore","[2]; Table 14A, porinated",320 µg/mL
same,Fold changes of MICs,[3],1 fold
same,"Minimum inhibitory concentration (MIC), Pore EKO-35","[3]; Table 10, with pore",320 µg/mL
same,"Minimum inhibitory concentration, EKO-35-Pore","[3]; Table 14A, porinated",320 µg/mL
same,Fold change of MICs,[4],1 fold
same,"Minimum Inhibitory Concentration, EKO-35 araC::mdtEF",[4]; [10],320 µg/mL
same,Fold change of MICs,[5],1 fold
same,"Minimum Inhibitory Concentration, EKO-35 araC::acrB",[5]; [10],320 µg/mL
same,"Minimum inhibitory concentration (MIC), K-12","[6]; Table 10, without pore",320 µg/mL
same,"Minimum Inhibitory Concentration, K-12","[6]; Table 13A, non-porinated",320 µg/mL
same,Fold change of MICs,[7],1 fold
same,"Minimum inhibitory concentration (MIC), EKO-35","[7]; Table 10, without pore",320 µg/mL
same,"Minimum Inhibitory Concentration, EKO-35","[7]; Table 13A, non-porinated",320 µg/mL
same,"Minimum inhibitory concentration (MIC), ΔtolC",[8],0.313 µg/mL
same,"Minimum Inhibitory Concentration, ΔtolC",[8],0.313 µg/mL
COc1ccc(C[C@H](N)C(=O)N[C@H]2[C@@H](O)[C@H](n3cnc4c(N(C)C)ncnc43)O[C@@H]2CO)cc1 [puromycin],MIC,"[1]; Escherichia coli, 18 h, read-out: Minimum inhibitory concentration, ΔtolC-Pore",1.56 µg/mL
same,"Minimum inhibitory concentration (MIC), Pore ΔtolC",[1],1.563 µg/mL
same,MIC,"[2]; Table 10, with pore, read-out: Minimum inhibitory concentration (MIC), Pore K-12",50 µg/mL
same,MIC,"[2]; Table 14A, porinated, read-out: Minimum inhibitory concentration, K-12 (WT)-Pore",50 µg/mL
same,Fold changes of MICs,[3],1 fold
same,MIC,"[3]; Table 10, with pore, read-out: Minimum inhibitory concentration (MIC), Pore EKO-35",0.781 µg/mL
same,MIC,"[3]; Table 14A, porinated, read-out: Minimum inhibitory concentration, EKO-35-Pore",0.781 µg/mL
same,Fold change of MICs,[4],1 fold
same,MIC,"[4]; Escherichia coli, Table 13A, non-porinated, technical duplicate, read-out: Minimum Inhibitory Concentration, EKO-35 araC::mdtEF",1.56 µg/mL
same,Fold change of MICs,[5],64 fold
same,MIC,"[5]; Escherichia coli, Table 13A, non-porinated, technical duplicate, read-out: Minimum Inhibitory Concentration, EKO-35 araC::acrB",100 µg/mL
same,MIC,"[6]; Table 10, without pore, read-out: Minimum inhibitory concentration (MIC), K-12",50 µg/mL
same,MIC,"[6]; Table 13A, non-porinated, read-out: Minimum Inhibitory Concentration, K-12",50 µg/mL
same,Fold change of MICs,[7],1 fold
same,MIC,"[7]; Table 10, without pore, read-out: Minimum inhibitory concentration (MIC), EKO-35",1.56 µg/mL
same,MIC,"[7]; Table 13A, non-porinated, read-out: Minimum Inhibitory Concentration, EKO-35",1.56 µg/mL
same,MIC,"[8]; Escherichia coli, 18 h, read-out: Minimum Inhibitory Concentration, ΔtolC",3.12 µg/mL
same,"Minimum inhibitory concentration (MIC), ΔtolC",[8],3.125 µg/mL
phenylalanine-arginine-β-naphthylamide [PAβN],PABN MICa Combined,"[9]; EKO35 araC::acrB, with Linezolid",16 µg/mL
same,PABN MICa Combined,"[9]; EKO-35 acrB, with Erythromycin",16 µg/mL
same,PABN MICa Combined,"[9]; EKO-35 acrB, with Fusidic Acid",32 µg/mL
same,PABN MICa Combined,"[9]; EKO-35 acrB, with Novobiocin",32 µg/mL
same,PABN MICa Combined,"[9]; EKO-35 acrB, with Oxacillin",16 µg/mL
same,PABN MICa Alone,[9]; EKO-35 acrD,64 µg/mL
same,PABN MICa Alone,"[9]; EKO-35 acrD, listed as PABN",128 µg/mL
same,PABN MICa Combined,"[9]; EKO-35 acrD, with Fusidic Acid",8 µg/mL
same,PABN MICa Combined,"[9]; EKO-35 acrD, with Novobiocin",16 µg/mL
same,PABN MICa Combined,"[9]; EKO-35 acrD, with Oxacillin",4 µg/mL
same,PABN MICa Alone,"[9]; EKO-35 acrEF, listed as PABN",32 µg/mL and 64 µg/mL
same,PABN MICa Combined,"[9]; EKO-35 acrEF, with Ciprofloxacin",16 µg/mL
same,PABN MICa Combined,"[9]; EKO-35 acrEF, with Erythromycin",16 µg/mL
same,PABN MICa Combined,"[9]; EKO-35 acrEF, with Fusidic Acid",8 µg/mL
same,PABN MICa Combined,"[9]; EKO-35 acrEF, with Oxacillin",16 µg/mL
same,PABN MICa Alone,[9]; EKO-35 mdtEF,64 µg/mL
same,PABN MICa Combined,"[9]; EKO-35 mdtEF, with Erythromycin",16 µg/mL
same,PABN MICa Combined,"[9]; EKO-35 mdtEF, with Fusidic Acid",8 µg/mL
same,PABN MICa Alone,[9]; EKO-35 mexCD,64 µg/mL
same,PABN MICa Combined,"[9]; EKO-35 mexCD, with Ciprofloxacin",8 µg/mL
same,PABN MICa Combined,"[9]; EKO-35 mexCD, with Erythromycin",8 µg/mL
